Entries after “also recorded” stand apart in the source; their conditions may differ. Where two headings read alike, the source gives them in different places.
How the values were obtained:
[1] = Pharmacokinetics after IV dose in mice; conditions: in vivo, 1 mg/kg IV, male C57BL/6 mice; for AUC(0-t): male, C57BL/6, mouse, iv, 1 mg/kg; for AUC(0-inf) / C0 / MRT inf / clearance / half-life / Vd: mouse; for Vd: read-out: Vss
Protocol: Male C57BL/6 mice were administered an intravenous (IV) dose of 1 mg/kg of the indicated compound.

[2] = Pharmacokinetics after PO dose in mice; format: in vivo, Male C57BL/6 mice; conditions: 10 mg/kg PO; for AUC(0-inf) / Cmax / MRT inf / Tmax / half-life / AUC(0-t): male, C57BL/6, mouse, in vivo; for AUC(0-t): read-out: AUC0-24 hr
[3] = target: CB1 receptor (Homo sapiens, UniProt P21554); test: cAMP Assay #1: CB1 adenylylcyclase assay in CHO cells; format: cell-based; set-up: expressed in transfected cells; host or cells: CHO cells
Protocol: (§1) Compounds of the invention were assayed in an adenylylcyclase assay to determine agonist activity on the CB1 and CB2 receptors, the results of which are provided in Table 4. Exemplary methods for the adenylylcyclase assay can be found in the literature, for example, in Rhee, M-H., et al. Cannabinol Derivatives: Binding to Cannabinoid Receptors and Inhibition of Adenylylcyclase. J Med Chem. 40: 3228-3233 (1997).
CB1 Activity as determined by Adenylylcyclase Assay: CB1 receptor agonist activity was measured by measuring cAMP production. A compound of the invention was incubated with CHO cells expressing human recombinant CB1 for 20 minutes at 37° C.
(§2) Determination of EC50 values: The EC50 values (concentration producing a half-maximal response) were determined by non-linear regression analysis of the concentration-response curves generated with mean replicate values using Hill equation curve fitting: Y=D+[(A−D)/(1+(C/C50)^nH)], where Y=response, A=left asymptote of the curve, D=right asymptote of the curve, C=compound concentration, and C50=EC50, and nH=slope factor. This analysis was performed using software developed at Cerep (Hill software) and validated by comparison with data generated by the commercial software SigmaPlot® 4.0 for Windows® (© 1997 by SPSS Inc.).

[4] = target: T1, CB2 receptor (Homo sapiens, UniProt P34972); test: cAMP Assay #1: CB2 adenylylcyclase assay in CHO cells; format: cell-based; set-up: expressed in transfected cells; host or cells: CHO cells
Protocol: as §1
CB2 Activity as determined by Adenylylcyclase Assay: CB2 receptor agonist activity was measured by measuring cAMP production. A compound of the invention was incubated with CHO cells expressing human recombinant CB2 for 10 minutes at 37° C.
as §2

[5] = target: T1, CB2 receptor; test: CB2 competitive radioligand binding assay ([3H] WIN-55,212-2); set-up: expressed in transfected cells; host or cells: CHO-K1 cells; conditions: for inhibition at 0.05 µM: 0.05 μM compound, 2.4 nM [3H] WIN-55,212-2, 90 min 37° C.; for Fold Selectivity (CB1/CB2): Table 2, ratio of Ki CB1/CB2
How it was run: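 CHO-K1 cells expressing human recombinant CB2 were incubated with compound (0.05 μM, 1% DMSO) and 2.4 nM [3H]WIN-55,212-2 in 20 mM HEPES pH 7.0, 0.5% BSA for 90 min at 37 °C. Percent inhibition of radioligand binding was reported.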

[6] = Brain concentration and brain/plasma ratio after PO dose in mice; format: in vivo; conditions: mouse, 10 mg/kg PO, male C57BL/6 mice; for Kp at 4 h / Kp at 10 h: brain/plasma; for concentration at 4 h / concentration at 10 h / concentration at 24 h: brain
Protocol: Male C57BL/6 mice were administered an oral (P0) dose of 10 mg/kg of the indicated compound. The brain/plasma ratios of the indicated compounds were determined by standard methods, the results of which are provided in Table 11.

[7] = test system: 12 systems of human primary cells; test: BioMAP Diversity PLUS phenotypic screen; format: cell-based; conditions: 3.3 μM; for Anti-proliferation: cell type in which anti-proliferative effect was seen; for Immune modulation, cell surface and tissue remodeling biomarkers: changes at least 1.5-fold from vehicle control
Protocol: Compounds of the invention were assayed for their effects on 148 biomarkers of inflammation, immune modulation and tissue remodeling in the BioMAP® Diversity PLUS® (DiscoverX) platform designed to model aspects of human diseases in vitro (Kunkel 2004, Berg 2006, Melton 2013).
The example compounds (3.3 μM) in Table 8 induced increases or decreases in the levels of the indicated 20 biomarkers, which are at least 1.5-fold change from vehicle control and are outside the significance prediction envelop. All compounds presented in Table 8 were not cytotoxic at the concentration tested.

[8] = CHO cells, 20 min 37° C., relative to 10 nM CP 55940, read-out: CB1 Activity EC50 (cAMP)
[9] = CHO cells, 10 min 37° C., relative to 100 nM WIN 55212-2, read-out: CB2 Activity EC50 (cAMP)
[10] = Table 2, read-out: CB2 Binding Ki

Sequence of CB1 receptor (P21554 whole entry): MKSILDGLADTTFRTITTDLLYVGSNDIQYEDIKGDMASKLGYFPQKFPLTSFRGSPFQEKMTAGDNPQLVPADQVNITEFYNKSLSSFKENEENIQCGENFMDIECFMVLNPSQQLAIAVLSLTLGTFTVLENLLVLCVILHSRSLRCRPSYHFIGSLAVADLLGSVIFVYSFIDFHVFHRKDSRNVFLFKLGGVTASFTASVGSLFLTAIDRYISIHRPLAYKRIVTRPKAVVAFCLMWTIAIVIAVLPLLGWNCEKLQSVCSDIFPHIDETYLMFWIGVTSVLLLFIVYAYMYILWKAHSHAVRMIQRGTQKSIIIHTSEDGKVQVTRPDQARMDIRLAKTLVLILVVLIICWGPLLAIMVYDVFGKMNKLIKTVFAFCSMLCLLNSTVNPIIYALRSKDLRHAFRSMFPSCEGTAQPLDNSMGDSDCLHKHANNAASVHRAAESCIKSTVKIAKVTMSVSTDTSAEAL
T1 sequence (P34972 whole entry): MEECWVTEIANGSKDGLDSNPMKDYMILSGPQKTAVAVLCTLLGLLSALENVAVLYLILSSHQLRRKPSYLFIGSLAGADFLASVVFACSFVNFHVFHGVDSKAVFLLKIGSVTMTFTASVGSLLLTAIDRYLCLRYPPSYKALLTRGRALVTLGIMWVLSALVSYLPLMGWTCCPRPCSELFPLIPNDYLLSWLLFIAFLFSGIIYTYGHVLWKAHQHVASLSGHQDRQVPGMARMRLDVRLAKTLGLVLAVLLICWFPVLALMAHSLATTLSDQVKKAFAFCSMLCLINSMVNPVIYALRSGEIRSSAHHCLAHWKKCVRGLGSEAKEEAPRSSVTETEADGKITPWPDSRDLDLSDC

Structure (SMILES)	AUC(0-t) ([1]; read-out: AUC0-24 hr) [µg·h/mL]	AUC(0-t) ([1]; read-out: AUClast) [µg·h/mL]	AUC(0-inf) [1] [µg·h/mL]	C0 [1] [µg/mL]	MRT inf [1] [h]	clearance [1] [L/h/kg]	half-life [1] [h]	Vd [1] [L/kg]	F [2] [%]	Tlag [2] [h]	AUC(0-inf) [2] [µg·h/mL]	Cmax [2] [µg/mL]	MRT inf [2] [h]	Tmax [2] [h]	half-life [2] [h]	AUC(0-t) [2] [µg·h/mL]	inhibition at 0.05 µM [5] [%]	EC50 [3, 8] [µM]	EC50 [4, 9] [µM]	Fold Selectivity (CB1/CB2) [5]	other results
CCCCCCC(C)(C)c1cc(O)c2c(c1)OC(C)(C)[C@@H]1CC=C(C(=O)O)C[C@@H]21 [AJA, (6aR,10aR)-1-hydroxy-6,6-dimethyl-3-(2-methyl-2-octanyl)-6a,7,10,10a-tetrahydro-6H-benzo[c]chromene-9-carboxylic acid, reference compound]	2.77	2.42	2.51	1.75	1.89	0.4	1.41	0.75	70.79	0	17.8	3.86	3.42	1	2.19	17.8	0	–	–	–	EC50 [3]: 0.0046 µM; EC50 [4]: 0.021 µM; Ki [5]: 0.633 µM
CCCCCCC(C)(C)c1cc(O)c2c(c1)OC(C)(C)[C@@H]1CC=C(C(=O)NC(C)(C)CCO)C[C@@H]21 [Compound 15, (6aR,10aR)-1-Hydroxy-N-(4-hydroxy-2-methylbutan-2-yl)-6,6-dimethyl-3-(2-methyloctan-2-yl)-6a,7,10,10a-tetrahydro-6H-benzo[c]chromene-9-carboxamide]	1.72	1.51	1.57	1.83	2.16	0.635	1.74	1.37	37.4	0.00	5.89	0.779	5.07	4	2.65	5.87	54	0.068	0.0075	18.3	Kp at 4 h [6]: 0.139; Kp at 10 h [6]: 0.331; concentration at 4 h [6]: 107 ng/g; concentration at 10 h [6]: 50.4 ng/g; concentration at 24 h [6]: 0 ng/g; Ki [5, 10]: 0.036 µM
CCCCCCC(C)(C)c1cc(O)c2c(c1)OC(C)(C)[C@@H]1CC=C(C(=O)NC(CO)CO)C[C@@H]21 [Compound 25, (6aR,10aR)-N-(1,3-Dihydroxypropan-2-yl)-1-hydroxy-6,6-dimethyl-3-(2-methyloctan-2-yl)-6a,7,10,10a-tetrahydro-6H-benzo[c]chromene-9-carboxamide]	–	–	–	–	–	–	–	–	–	–	–	–	–	–	–	–	36	0.016	0.011	4.33	Anti-proliferation [7]: Dermal fibroblasts; Immune modulation, cell surface and tissue remodeling biomarkers [7]: Reduced VCAM-1, PAI-I, IL-10, and M-CSF; increased MMP-1; Ki [5, 10]: 0.073 µM
CCCCCCC(C)(C)c1cc(O)c2c(c1)OC(C)(C)[C@@H]1CC=C(C(=O)OC(C)C)C[C@@H]21 [Compound 29, Isopropyl (6aR,10aR)-1-hydroxy-6,6-dimethyl-3-(2-methyloctan-2-yl)-6a,7,10,10a-tetrahydro-6H-benzo[c]chromene-9-carboxylate]	3.55	3.55	3.57	17.5	1.53	0.28	4.89	0.43	3.98	0.00	1.42	0.203	6.2	6	4.21	1.4	79	–	–	–	Anti-proliferation [7]: Dermal fibroblasts; Immune modulation, cell surface and tissue remodeling biomarkers [7]: Reduced Eotaxin-3, IL-8, E-selectin, P-selectin, VCAM, EGFR,; also recorded: IL-1α, IP-10, and PAI-I; Kp at 4 h [6]: 0.00637; Kp at 10 h [6]: 0.106; concentration at 4 h [6]: 1.72 ng/g; concentration at 10 h [6]: 7.93 ng/g; concentration at 24 h [6]: 0 ng/g; EC50 [3]: 0.0068 µM; EC50 [4]: 0.0023 µM
CCCCCCC(C)(C)c1cc(O)c2c(c1)OC(C)(C)[C@@H]1CC=C(C(=O)NC[C@@H](O)CO)C[C@@H]21 [Compound 55, (6aR,10aR)-N—((R)-2,3-Dihydroxypropyl)-1-hydroxy-6,6-dimethyl-3-(2-methyloctan-2-yl)-6a,7,10,10a-tetrahydro-6H-benzo[c]chromene-9-carboxamide]	2.36	2.36	2.38	3.06	3.38	0.421	3.99	1.42	30.33	0	7.21	0.882	6.4	1	2.72	7.17	–	0.045	0.0052	19	Anti-proliferation [7]: Dermal fibroblasts; Ki [5, 10]: 0.033 µM
CCCCCCC(C)(C)c1cc(O)c2c(c1)OC(C)(C)[C@@H]1CC=C(C(=O)NC[C@H](O)CO)C[C@@H]21 [Compound 56, (6aR,10aR)-N—((S)-2,3-Dihydroxypropyl)-1-hydroxy-6,6-dimethyl-3-(2-methyloctan-2-yl)-6a,7,10,10a-tetrahydro-6H-benzo[c]chromene-9-carboxamide]	2.08	1.79	1.92	2.79	2.3	0.522	2.39	1.2	23.11	0	4.43	0.902	4.89	1	2.63	4.42	–	0.0036	0.0087	17	Ki [5, 10]: 0.041 µM

— patent US20210284621A1 (priority 2018, published 2021)
